Assay results taken from the supplement of paper PMC11061612.

Columns and labels:
[1] = system: Caov-4 (Ovarian Carcinoma); experiment: Bliss excess, mean over the matrix (fraction); higher = more synergy
Method in brief: (§1)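 Bliss excess equals the observed combination effect minus the expected value EA + EB − EA·EB, where EA and EB are the effects of each agent alone. Combination Emax is the second-highest inhibition within the matrix. Inhibition was scaled from CellTiter-Glo 2.0 luminescence, with 0 set by vehicle wells and 1 by blank wells, after 72 hours of two-drug dosing of cells plated in 1536-well plates.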

[2] = system: AMO-1 (Plasma Cell Myeloma); experiment: combination Emax (second highest fraction inhibited in the dose matrix, 72 h); higher = more inhibition; extreme values may be limits of the assay
Method in brief: as §1

[3] = system: BT-549 (Breast Carcinoma); experiment: as above
Method in brief: as §1

[4] = system: C-4-I (Cervical Carcinoma); experiment: as above
Method in brief: as §1

[5] = system: D-263MG (Glioblastoma); experiment: as above
Method in brief: as §1

[6] = system: EFM-19 (Breast Carcinoma); experiment: as above
Method in brief: as §1

[7] = system: EoL-1-cell (Acute Myeloid Leukemia); experiment: as above
Method in brief: as §1

[8] = system: Hs-766T (Pancreatic Carcinoma); experiment: as above
Method in brief: as §1

[9] = system: KMOE-2 (Acute Myeloid Leukemia); experiment: as above
Method in brief: as §1

[10] = system: MLMA (Other Blood Carcinomas); experiment: as above
Method in brief: as §1

[11] = system: NCI-H358 (Lung Adenocarcinoma); experiment: as above
Method in brief: as §1

[12] = system: NCI-H727 (Other Solid Carcinomas); experiment: as above
Method in brief: as §1

[13] = system: OE19 (Esophageal Adenocarcinoma); experiment: as above
Method in brief: as §1

[14] = system: OVCAR-4 (Ovarian Carcinoma); experiment: as above
Method in brief: as §1

[15] = system: SCC-15 (Oral Cavity Carcinoma); experiment: as above
Method in brief: as §1

[16] = system: SU8686 (Pancreatic Carcinoma); experiment: as above
Method in brief: as §1

[17] = system: SW13 (Other Solid Carcinomas); experiment: as above
Method in brief: as §1

[18] = system: TE-1 (Esophageal Squamous Cell Carcinoma); experiment: as above
Method in brief: as §1

[19] = system: TK10 (Kidney Carcinoma); experiment: as above
Method in brief: as §1

[20] = system: UACC-62 (Melanoma); experiment: as above
Method in brief: as §1

Structure (SMILES) | Bliss excess [1] | combination Emax [2] | combination Emax [3] | combination Emax [4] | combination Emax [5] | combination Emax [6] | combination Emax [7] | combination Emax [8] | combination Emax [9] | combination Emax [10] | combination Emax [11] | combination Emax [12] | combination Emax [13] | combination Emax [14] | combination Emax [15] | combination Emax [16] | combination Emax [17] | combination Emax [18] | combination Emax [19] | combination Emax [20]
Cc1c2c(nn1C)CSCc1cc(n(C)n1)CSc1cc(c3ccccc3c1)OCCCc1c(C(=O)O)n(C)c3c-2c(Cl)ccc13 [AZD5991] + C[C@@H]1COCCN1C2=NC(=NC(=C2)C3(CC3)[S@](=N)(=O)C)C4=C5C=CNC5=NC=C4 [AZD6738] (first compound max 1 µM, 7x7, partner max 10 µM) | -0.0205 | 1 | 0.659 | 1 | 0.935 | 0.465 | 1 | 0.574 | 0.873 | 0.697 | 0.632 | 0.412 | 0.746 | 0.713 | 0.561 | 0.353 | 0.854 | 0.747 | 0.522 | 0.939
Cc1c2c(nn1C)CSCc1cc(n(C)n1)CSc1cc(c3ccccc3c1)OCCCc1c(C(=O)O)n(C)c3c-2c(Cl)ccc13 [AZD5991] + C[C@@H](Nc1cc(F)cc(F)c1)c1cc(C(=O)N(C)C)cc2c(=O)cc(N3CCOCC3)oc12 [AZD8186] (first compound max 1 µM, 7x7, partner max 3 µM) | -0.0121 | 1 | 0.476 | 0.985 | 0.975 | 0.586 | 1 | 0.45 | 0.644 | 0.532 | 0.282 | 0.274 | 0.49 | 0.288 | 0.322 | 0.378 | 0.947 | 0.589 | 0.419 | 0.934
Cc1c2c(nn1C)CSCc1cc(n(C)n1)CSc1cc(c3ccccc3c1)OCCCc1c(C(=O)O)n(C)c3c-2c(Cl)ccc13 [AZD5991] + Cc1cc2ncnn2cc1Nc1ncc2c(n1)n(C1CCOCC1)c(=O)n2C [AZD7648] (first compound max 1 µM, 7x7, partner max 10 µM) | 0.0024 | 1 | 0.329 | 1 | 0.75 | 0.629 | 1 | 0.398 | 0.74 | 0.439 | 0.331 | 0.277 | 0.424 | 0.255 | 0.25 | 0.127 | 0.861 | 0.599 | 0.385 | 0.859
Cc1c2c(nn1C)CSCc1cc(n(C)n1)CSc1cc(c3ccccc3c1)OCCCc1c(C(=O)O)n(C)c3c-2c(Cl)ccc13 [AZD5991] + Cn1cnc2c(F)c(Nc3ccc(Br)cc3Cl)c(C(=O)NOCCO)cc21 [Selumetinib] (first compound max 1 µM, 7x7, partner max 3 µM) | 0.0604 | 1 | 0.258 | 1 | 0.634 | 0.282 | 1 | 0.595 | 1 | 0.393 | 0.485 | 0.65 | 0.49 | 0.376 | 0.322 | 0.334 | 0.828 | 0.655 | 0.454 | 0.998
C[C@@H]1COCCN1c1cc(C2([S@](C)(=N)=O)CC2)nc(-c2ccnc3[nH]ccc23)n1 [AZD6738] + O=C(c1cc(Cc2n[nH]c(=O)c3ccccc23)ccc1F)N1CCN(C(=O)C2CC2)CC1 [Olaparib] (first compound max 10 µM, 7x7, partner max 10 µM) | -0.125 | 0.866 | 0.446 | 0.875 | 0.981 | 0.439 | 0.992 | 0.554 | 0.616 | 0.988 | 0.544 | 0.384 | 0.55 | 0.664 | 0.587 | 0.288 | 0.451 | 0.319 | 0.471 | 0.509
NC1(C(=O)N[C@@H](CCO)c2ccc(Cl)cc2)CCN(c2ncnc3[nH]ccc23)CC1 [Capivasertib] + CC(=O)c1c(C)c2cnc(Nc3ccc(N4CCNCC4)cn3)nc2n(C2CCCC2)c1=O [Palbociclib] (first compound max 10 µM, 7x7, partner max 10 µM) | 0.0152 | 0.743 | 0.391 | 0.519 | 0.448 | 0.481 | 0.858 | 0.36 | 0.541 | 0.515 | 0.436 | 0.507 | 0.523 | 0.168 | 0.35 | 0.07 | 0.261 | 0.204 | 0.516 | 0.492
NC1(C(=O)N[C@@H](CCO)c2ccc(Cl)cc2)CCN(c2ncnc3[nH]ccc23)CC1 [Capivasertib] + CC(C)n1c(=O)n(C)c2cnc3cc(F)c(-c4ccc(OCCCN5CCCCC5)nc4)cc3c21 [AZD1390] (first compound max 10 µM, 7x7, partner max 0.3 µM) | -0.0095 | 0.633 | 0.353 | 0.237 | 0.249 | 0.469 | 0.874 | 0.209 | 0.33 | 0.452 | 0.374 | 0.35 | 0.346 | 0.162 | 0.227 | 0.113 | 0.35 | 0.153 | 0.411 | 0.572
NC1(C(=O)N[C@@H](CCO)c2ccc(Cl)cc2)CCN(c2ncnc3[nH]ccc23)CC1 [Capivasertib] + CCN(CCO)CCCOc1ccc2c(Nc3cc(CC(=O)Nc4cccc(F)c4)[nH]n3)ncnc2c1 [AZD2811] (first compound max 10 µM, 7x7, partner max 1 µM) | 0.026 | 0.769 | 0.435 | 0.402 | 0.455 | 0.586 | 1 | 0.23 | 0.489 | 0.461 | 0.394 | 0.418 | 0.847 | 0.323 | 0.334 | 0.121 | 0.515 | 0.383 | 0.403 | 0.556
NC1(C(=O)N[C@@H](CCO)c2ccc(Cl)cc2)CCN(c2ncnc3[nH]ccc23)CC1 [Capivasertib] + COc1nnc2ccc(N3CCC(c4ccc(OCCN5CCN(C)C(=O)[C@H]5C)cc4)CC3)nn12 [AZD5153] (first compound max 10 µM, 7x7, partner max 1 µM) | -0.0146 | 0.911 | 0.602 | 0.749 | 0.562 | 0.538 | 1 | 0.457 | 0.831 | 0.994 | 0.585 | 0.434 | 0.656 | 0.398 | 0.508 | 0.0398 | 0.389 | 0.485 | 0.63 | 0.56
NC1(C(=O)N[C@@H](CCO)c2ccc(Cl)cc2)CCN(c2ncnc3[nH]ccc23)CC1 [Capivasertib] + C[C@@H]1COCCN1C2=NC(=NC(=C2)C3(CC3)[S@](=N)(=O)C)C4=C5C=CNC5=NC=C4 [AZD6738] (first compound max 10 µM, 7x7, partner max 10 µM) | -0.0249 | 0.903 | 0.511 | 0.913 | 0.442 | 0.526 | 1 | 0.437 | 0.618 | 0.771 | 0.554 | 0.58 | 0.698 | 0.707 | 0.601 | 0.166 | 0.712 | 0.449 | 0.605 | 0.568
NC1(C(=O)N[C@@H](CCO)c2ccc(Cl)cc2)CCN(c2ncnc3[nH]ccc23)CC1 [Capivasertib] + Cn1cnc2c(F)c(Nc3ccc(Br)cc3Cl)c(C(=O)NOCCO)cc21 [Selumetinib] (first compound max 10 µM, 7x7, partner max 10 µM) | -0.0293 | 0.801 | 0.41 | 0.537 | 0.518 | 0.477 | 1 | 0.591 | 1 | 0.513 | 0.585 | 0.729 | 0.573 | 0.338 | 0.524 | 0.26 | 0.65 | 0.49 | 0.534 | 0.908
COc1cccc2c1C(=O)c1c(O)c3c(c(O)c1C2=O)C[C@@](O)(C(=O)CO)C[C@@H]3O[C@H]1C[C@H](N)[C@H](O)[C@H](C)O1 [Doxorubicin] + Cc1cc2ncnn2cc1Nc1ncc2c(n1)n(C1CCOCC1)c(=O)n2C [AZD7648] (first compound max 1 µM, 7x7, partner max 10 µM) | 0.056 | 0.973 | 0.441 | 0.971 | 0.789 | 0.437 | 1 | 0.43 | 0.911 | 0.893 | 0.821 | 0.147 | 0.514 | 0.451 | 0.329 | 0.203 | 0.874 | 0.736 | 0.773 | 0.935
CS(=O)(=O)CCNCc1ccc(-c2ccc3ncnc(Nc4ccc(OCc5cccc(F)c5)c(Cl)c4)c3c2)o1 [Lapatinib] + C[C@@H](Oc1cc(-c2cnn(C3CCNCC3)c2)cnc1N)c1c(Cl)ccc(F)c1Cl [Crizotinib] (first compound max 10 µM, 7x7, partner max 10 µM) | -0.0451 | 0.958 | 0.609 | 0.943 | 0.595 | 0.554 | 0.988 | 0.319 | 0.911 | 0.899 | 0.926 | 0.942 | 1 | 0.727 | 0.944 | 0.16 | 0.9 | 0.919 | 0.656 | 0.66
